From US20250041463A1, “FLUORINE-18 LABELED COMPOSITIONS AND THEIR USE IN IMAGING OF BIOLOGICAL TISSUE” (CORNELL UNIVERSITY, priority 2018, published 2025)

System: Nestin tv-a derived DIPG
Test: Cell viability reference control (dasatinib)
Format: cell-based
Conditions: four parameter logistic standard curve regression, R^2=0.972

SMILES: Cc1nc(Nc2ncc(C(=O)Nc3c(C)cccc3Cl)s2)cc(N2CCN(CCO)CC2)n1 [dasatinib]
- IC50: 0.019 ± 0.02 µM
